Counter-ions that a name gives are not always drawn. Like-named read-outs stand apart in the source and are kept apart here. Values belong to the compound of their own block, whether it stands above or below them.
What was measured:
Format in all cases: physicochemical
[1] = Thermal stability evaluation (TG/DTA); details: for Thermal stability TG: weight change: 10 K/min, nitrogen
Description: Thermal stability was evaluated by using a thermogravimetry/differential thermal analyzer TG/DTA7200 (SII NanoTechnology Inc.) under the following conditions. • Rate of temperature increase: 10 K/min • Atmosphere: nitrogen 200 mL/min <Hygroscopicity or Deliquescency Evaluation>

[2] = Hygroscopicity or deliquescency evaluation (moisture adsorption, DVS)
Description: Hygroscopicity or deliquescency was evaluated as follows by using a moisture adsorption measurement device DVS-1 or DVS-intrinsic (Surface Measurement Systems Limited). Each sample was placed into a cell of which the tare weight had been corrected in advance, and the cell was hung on the precision balance of said device to precisely measure the weight at the start of measurement. The humidity was changed in a stepwise manner, the weight change was recorded with time, and the equilibrium weight was calculated at each humidity. On the basis of the weight of anhydride converted from the amount of water at a dried condition (0% RH) or at the start of measurement observed by an alternative method, the weight change rate at each humidity was calculated.

[3] = Chemical stability evaluation (storage 1 week, related substances by HPLC, observation of sample)
Description: Each sample was stored at 60° C. under a sealed condition and at 60° C. under 75% RH for 1 week, an increase or decrease of related substances after the storage was calculated by high-performance liquid chromatographic method on the basis of the area percentage of each peak. Also, the condition of each sample after the storage was observed.

Thermal stability TG: weight change ([1]; 30-130° C.): 2.2%
Hygroscopicity or Deliquescency: Weight change under 90% RH [2]: 1.8%
SMILES: COC[C@H]1CN(C(=O)[C@]2(F)CN(C3CCCC3)C[C@H]2c2ccc(OC)cc2)C[C@@H]1c1ccc(C(F)(F)F)cc1N1CCC(C(=O)O)CC1 [Amorphous of free form, 1-{2-[(3S,4R)-1-[(3R,4R)-1-cyclopentyl-3-fluoro-4-(4-methoxyphenyl)pyrrolidine-3-carbonyl]-4-(methoxymethyl)pyrrolidin-3-yl]-5-(trifluoromethyl)phenyl}piperidine-4-carboxylic acid]

Thermal stability TG: weight change ([1]; 30-150° C.): 4.8%
Deliquescency [2]: deliquescent
Hygroscopicity or Deliquescency: Weight change under 90% RH [2]: 11.87%
Deliquescency ([2]; listed as hydrochloride of the Pyrrolidine compound A): has deliquescency
Hygroscopicity or Deliquescency: observation (deliquescent) ([2]; under 90% RH): deliquescent
Chemical stability: condition of sample after the storage ([3]; 60° C., 75% RH, 1 week): deliquescent
SMILES: COC[C@H]1CN(C(=O)[C@]2(F)CN(C3CCCC3)C[C@H]2c2ccc(OC)cc2)C[C@@H]1c1ccc(C(F)(F)F)cc1N1CCC(C(=O)O)CC1 [Amorphous of hydrochloride, 1-{2-[(3S,4R)-1-[(3R,4R)-1-cyclopentyl-3-fluoro-4-(4-methoxyphenyl)pyrrolidine-3-carbonyl]-4-(methoxymethyl)pyrrolidin-3-yl]-5-(trifluoromethyl)phenyl}piperidine-4-carboxylic acid]

Chemical stability [3]: poor
SMILES: COC[C@H]1CN(C(=O)[C@]2(F)CN(C3CCCC3)C[C@H]2c2ccc(OC)cc2)C[C@@H]1c1ccc(C(F)(F)F)cc1N1CCC(C(=O)O)CC1 [Crystal of free form, 1-{2-[(3S,4R)-1-[(3R,4R)-1-cyclopentyl-3-fluoro-4-(4-methoxyphenyl)pyrrolidine-3-carbonyl]-4-(methoxymethyl)pyrrolidin-3-yl]-5-(trifluoromethyl)phenyl}piperidine-4-carboxylic acid]

Thermal stability TG: weight change ([1]; 30-230° C.): No change
Weight change on heating ([1]; even at 200° C. or more): did not show a weight change
Deliquescency ([2]; listed as Phosphoric acid Form B crystal): not deliquescent
SMILES: COC[C@H]1CN(C(=O)[C@]2(F)CN(C3CCCC3)C[C@H]2c2ccc(OC)cc2)C[C@@H]1c1ccc(C(F)(F)F)cc1N1CCC(C(=O)O)CC1 [Present crystal, 1-{2-[(3S,4R)-1-[(3R,4R)-1-cyclopentyl-3-fluoro-4-(4-methoxyphenyl)pyrrolidine-3-carbonyl]-4-(methoxymethyl)pyrrolidin-3-yl]-5-(trifluoromethyl)phenyl}piperidine-4-carboxylic acid]
